Data: patent US6849722B2, “Polymerized oligopeptide-surfactant chiral micelles” (Board of Supervisors of Louisiana State University and …, priority 1998, dated 2005)

Assays:
[1] = cited from earlier work
[2] = Effective electrophoretic mobility by capillary zone electrophoresis/indirect photometric detection; format: physicochemical; conditions: 100 mM boric acid and 5 mM Na2B4O7, pH 8.0; NMS light-absorbing electrolyte
[3] = Critical micelle concentration by surface tension measurement; format: physicochemical; conditions: in pure water
Method: Table 1 compares the structural features and physicochemical properties of L-SUV and L-SUVV. The critical micelle concentration (“CMC”) for both chiral surfactants was measured by following a linear decrease in surface tension as surfactant concentration increased, up to a point. After this point, no appreciable change in surface tension was observed. The point of intersection of the two lines (the linear decrease and the flat line thereafter) was taken as the CMC of the surfactants. The greater hydrophobicity of L-SUVV compared to L-SUV gave the former a lower CMC. In addition, an increase in the molecular weight decreased the mobility of L-SUVV toward the injector end. Thus, L-SUVV eluted faster than L-SUV, as it was carried more rapidly by bulk electroosmotic flow (EOF) towards the detection window.
All surfactants in this study were synthesized according to the procedure of Wang, J.; Warner, I. M. Anal. Chem. 1994, 66, 3773-3776. […] The critical micelle concentrations of the surfactants were determined by surface tension measurements as previously described. […] These numbers were calculated from average molecular weights as determined by ultracentrifugation. All monomers and polymers used in this study were 99% pure or better, as determined from elemental analysis.

Substance	pKa [1]	effective electrophoretic mobility (μep) [2]	critical micelle concentration (CMC) [3] [mM]
tris (hydroxymethyl)aminomethane	around 8		
sodium N-undecylenyl-L-valine-L-valine [L-U-Val-Val]		−1.2 × 10^−4 cm^−2 V^−1 s^−1	10
